Results reported in patent US9232799B2, “N-[(het)arylethyl)] pyrazole(thio)carboxamides and their heterosubstituted analogues” (BAYER INTELLECTUAL PROPERTY GMBH, priority 2010, dated 2016).

Key:
[1] = test system: Sphaerotheca fuliginea; assay: In vivo preventive test on Sphaerotheca fuliginea (cucumber); conditions: 500 ppm of active ingredient, evaluated 7 days after inoculation
Text: One day after this treatment, the plants are inoculated with an aqueous spore suspension of Sphaerotheca fuliginea.

[2] = test system: Venturia inaequalis; assay: In vivo preventive test on Venturia inaequalis (apple scab); conditions: 100 ppm of active ingredient, evaluated 10 days after inoculation
[3] = test system: Pyrenophora teres; assay: In vivo preventive test on Pyrenophora teres (barley); conditions: 500 ppm of active ingredient, evaluated 7-9 days after inoculation
Text: One day after this treatment, the plants are inoculated with an aqueous spore suspension of Pyrenophora teres.

[4] = test system: Blumeria graminis f.sp. hordei; assay: In vivo preventive test on Blumeria graminis (barley); conditions: 500 ppm of active ingredient, evaluated 7 days after inoculation
Text: (§1) To test for preventive activity, young plants are sprayed with the preparation of active compound or active compound combination at the stated rate of application.

[5] = test system: aflatoxines production; assay: microbe, parasite or virus in culture; format: cell-based, Aspergillus parasiticus; conditions: for inhibition at 50 µM: Aspergillus parasiticus, 168 h, read-out: % Inhibition of Aflatoxin at 50 μM
[6] = test system: Septoria tritici; assay: In vivo preventive test on Septoria tritici (wheat); conditions: 500 ppm of active ingredient, evaluated 21 days after inoculation
Text: as §1

[7] = test system: Fusarium nivale (var. majus); assay: In vivo curative test on Fusarium nivale (wheat); conditions: 500 ppm of active ingredient, evaluated 5 days after inoculation
[8] = test system: Alternaria solani; assay: In vivo preventive test on Alternaria solani (tomato); conditions: 500 ppm of active ingredient, evaluated 7 days after inoculation
Text: One day after this treatment, the plants are inoculated with an aqueous spore suspension of Alternaria solani.

[9] = test system: Fusarium graminearum; assay: microbe, parasite or virus in culture; format: cell-based; conditions: for inhibition at 50 µM: Fusarium graminearum, 168 h, read-out: % Inhibition of fungal growth at 50 μM
[10] = test system: Botrytis cinerea; assay: In vivo preventive test on Botrytis cinerea (beans); conditions: preventive, beans, lesion size 2 days after inoculation; for Efficacy / pest or weed control at 100 ppm: 100 ppm of active ingredient
Text: To test for preventive activity, young plants are sprayed with the preparation of active compound. After the spray coating has dried on, 2 small pieces of agar covered with growth of Botrytis cinerea are placed on each leaf.

[11] = test system: Leptosphaeria nodorum; assay: In vivo preventive test on Leptosphaeria nodorum (wheat); conditions: 500 ppm of active ingredient, evaluated 7-9 days after inoculation
Text: One day after this treatment, the plants are inoculated with an aqueous spore suspension of Leptosphaeria nodorum.

[12] = test system: Puccinia triticina; assay: In vivo preventive test on Puccinia triticina (wheat); conditions: evaluated 8 days after inoculation; for Efficacy: dose 500 ppm of active ingredient
[13] = test system: Uromyces appendiculatus; assay: In vivo preventive test on Uromyces appendiculatus (beans); conditions: 100 ppm of active ingredient, evaluated 10 days after inoculation
[14] = logP by HPLC on reversed-phase column (C 18), EEC Directive 79/831 Annex V.A8; format: physicochemical
Protocol: In table 1, the logP values were determined in accordance with EEC Directive 79/831 Annex V.A8 by HPLC (High Performance Liquid Chromatography) on a reversed-phase column (C 18), using the method described below: Temperature: 40° C.; […]

[15] = test system: Fusarium nivale (var. majus); assay: In vivo preventive test on Fusarium nivale (wheat); conditions: 500 ppm of active ingredient, evaluated 5 days after inoculation
Text: as §1

[16] = test system: Cochliobolus miyabeanus; assay: In vivo protective test on Cochliobolus miyabeanus (rice); conditions: evaluated 4 days after inoculation
[17] = dose 250 ppm of active ingredient
[18] = Botrytis cinerea, 48 h, read-out: Efficacy

Row | Structure (SMILES) | Efficacy [1] [%] | Efficacy [2] [%] | Efficacy [3] [%] | Efficacy [4] [%] | % Inhibition of Aflatoxin at 50 μM [5] [%] | Efficacy [6] [%] | Efficacy [7] [%] | Efficacy [8] [%] | % Inhibition of fungal growth at 50 μM [9] [%] | Efficacy [10] [%] | Efficacy [11] [%] | logP [14] | further results
1 | CCC(NC(=O)c1c(C(F)F)nn(C)c1Cl)C(OC)c1ccc(Cl)cc1Cl (mixture of isomers) [Example 76] | 93 | 100 | 100 | 100 | 100 | 100 | 86 | 95 | 100 | 72 | – | – | –
2 | CCOC(c1ccc(Cl)cc1Cl)C(C)NC(=O)c1c(C(F)F)nn(C)c1Cl (mixture of isomers) [Example 82] | 95 | 100 | 100 | – | 100 | 100 | 100 | 95 | 100 | 98 | – | – | –
3 | CCOC(c1ccc(Cl)cc1Cl)C(C)NC(=O)c1c(C(F)F)nn(C)c1F (mixture of isomers) [Example 83] | 100 | 100 | 100 | 100 | 100 | 100 | 100 | 100 | 100 | 98 | 90 | – | –
4 | COC(c1cc(Cl)cc(Cl)c1)C(C)NC(=O)c1c(C(F)F)nn(C)c1Cl (mixture of isomers) [Example 108] | – | 100 | 100 | – | 100 | 100 | 100 | 90 | 100 | – | – | – | Efficacy [12]: 100%; Efficacy [13]: 100%
5 | COC(c1cc(Cl)cc(Cl)c1)C(C)NC(=O)c1c(C(F)F)nn(C)c1F (mixture of isomers) [Example 109] | 85 | 99 | 100 | 100 | 100 | 100 | 100 | 95 | 100 | – | – | – | –
6 | Cn1nc(C(F)F)c(C(=O)N(CCc2ccccc2)C2CC2)c1F [Example 11] | 83 | – | 100 | 100 | 100 | 100 | 100 | 95 | 100 | – | 95 | 2.88 | –
7 | CC(CN(C(=O)c1c(C(F)F)nn(C)c1F)C1CC1)c1ccccc1 (centres unmarked) [Example 13] | – | – | 100 | 100 | 100 | 93 | 93 | 95 | 100 | – | 100 | 3.17 | –
8 | CC(Cc1c(F)cccc1F)N(C(=O)c1c(C(F)F)nn(C)c1F)C1CC1 (centres unmarked) [Example 26] | 86 | – | 100 | 100 | 100 | 100 | 100 | 100 | 99 | – | 95 | 3.42 | Efficacy [12]: 90%
9 | CC(Cc1ccc(Cl)cc1Cl)NC(=S)c1c(C(F)F)nn(C)c1F (centres unmarked) [Example 70] | 98 | 100 | 100 | 100 | 100 | – | 92 | 95 | 100 | 100 | 78 | 4.16 | Efficacy [13]: 75%
10 | COC(c1ccc(Cl)cc1Cl)C(C)NC(=O)c1c(C(F)F)nn(C)c1F (centres unmarked) [Example 73, N-[1-(2,4-dichlorophenyl)-1-methoxypropan-2-yl]-3-(difluoromethyl)-5-fluoro-1-methyl-1H-pyrazole-4-carboxamide] | 100 | 100 | 100 | 100 | – | 100 | – | 100 | – | – | – | 3.75 | Efficacy [15]: 88%; inhibition at 50 µM [5]: 100%; Efficacy ([16]; dose 10 ppm of active ingredient): 65%; Efficacy ([16]; dose 50 ppm of active ingredient): 92%; Efficacy ([16]; dose 100 ppm of active ingredient): 97%; Efficacy [16, 17]: 98%; Efficacy (protection) ([16]; protective, 10 ppm of active ingredient (lowest of 250, 100, 50 and 10 ppm)): at least 65%; chromatographic logP [14]: 3.65; inhibition at 50 µM [9]: 100%; pest or weed control at 100 ppm [10, 18]: 99%
11 | COC(CNC(=O)c1c(C(F)F)nn(C)c1Cl)c1ccc(Cl)cc1Cl (centres unmarked) [Example 74] | 75 | 100 | 95 | 100 | 100 | 100 | 100 | – | 100 | 93 | – | 3.48 | –
12 | COC(CNC(=O)c1c(C(F)F)nn(C)c1F)c1ccc(Cl)cc1Cl (centres unmarked) [Example 75] | 80 | 95 | 100 | 100 | 100 | 100 | 86 | – | 100 | 95 | – | 3.25 | –
13 | CCC(NC(=O)c1c(C(F)F)nn(C)c1F)C(OC)c1ccc(Cl)cc1Cl (centres unmarked) [Example 77] | 95 | 100 | 80 | 100 | 100 | 100 | 100 | 100 | 100 | 97 | 95 | 3.94 | –
14 | COC(CNC(=O)c1c(C(F)F)nn(C)c1Cl)c1cc(Cl)cc(Cl)c1 (centres unmarked) [Example 106] | – | – | 90 | – | 89 | 71 | 93 | – | 69 | – | – | 3.55 | –
15 | Cn1nc(C(F)F)c(C(=O)NCCc2ncc(C(F)(F)F)cc2Cl)c1F [Example 187] | – | 100 | 100 | 94 | 100 | 100 | – | 100 | 100 | 100 | – | 2.75 | Efficacy [16, 17]: 85%; Efficacy [13]: 96%
16 | CC(Cc1ncc(C(F)(F)F)cc1Cl)N(C(=O)c1c(C(F)F)nn(C)c1F)C1CC1 (centres unmarked) [Example 188, N-{1-[3-chloro-5-(trifluoromethyl)pyridin-2-yl]propan-2-yl}-N-cyclopropyl-3-(difluoromethyl)-5-fluoro-1-methyl-1H-pyrazole-4-carboxamide] | 100 | 100 | 100 | 100 | – | 100 | – | 100 | – | – | 100 | – | Efficacy [15]: 100%; Efficacy [12]: 90%; Efficacy (protection) ([12]; preventive, 500 ppm of active ingredient): greater than 90%; inhibition at 50 µM [5]: 100%; Efficacy [16, 17]: 80%; chromatographic logP [14]: 3.8; inhibition at 50 µM [9]: 100%; Efficacy [13]: 98%; pest or weed control at 100 ppm [10, 18]: 98%; pest or weed control at 500 ppm ([10]; Botrytis cinerea, 48 h, 500 ppm of active ingredient, read-out: Efficacy): > 95%
